Measurements from BindingDB's records for PubMed 18089823 (Harvard Medical School).

Biological target: 3-phosphoinositide-dependent protein kinase 1 (Homo sapiens) (UniProt O15530)
Test: Inhibition of recombinant PDK1 (unknown origin)

IC50: > 10 µM
SMILES: COc1cc2ncnc(Nc3ccc(F)c(Cl)c3)c2cc1NC(=O)/C=C/CN1CCCCC1 [DACOMITINIB]
